One data set relates to J774.A1. Briefly: Antiinflammatory activity against mouse J774A.1 cells assessed as inhibition of LPS-stimulated IL6 release measured after 30 mins by ELISA. It is filed as functional, cell-based. The note with it: J774.A1, 0.5 h. (In general: In an ELISA, binding on a coated surface is turned into a signal by an enzyme label.)
Data set [1] in a line: Cytotoxicity against mouse J774A.1 cells assessed as cell viability at 10 uM measured after 24 hrs incubation by MTT assay. It counts as toxicity, cell-based, J774.A1. The note with it: read-out: Activity. In general terms: Formazan colour is commonly taken as a measure of viable cells.
In data set [2] the test system is THP-1. Put plainly: Antiinflammatory activity against human THP-1 cells assessed as inhibition of LPS-stimulated IL6 release measured after 30 mins by ELISA. It counts as functional, cell-based. The note with it: THP-1, 0.5 h.
For data set [3], the system named is THP-1. Put plainly: Antiinflammatory activity against human THP-1 cells assessed as inhibition of LPS-stimulated IL6 mRNA expression pretreated for 2 hrs followed by stimulated with LPS by RT-qPCR analysis. It is filed as functional, cell-based. The note with it: dose 2.5-10 µM. On the technique in general: Real-time PCR tracks product formation cycle by cycle.

In data set [4] the test system is Mus musculus. Put plainly: Antiinflammatory activity against LPS-induced acute lung injury C57 mouse model assessed as decrease in LPS-induced lung wet to dry weight ratio at 20 mg/kg, po thrice at 12 hrs interval. It counts as functional, organism-based.
Data set [5] deals with Mus musculus. Briefly: Antiinflammatory activity against LPS-induced acute lung injury C57 mouse model assessed as decrease in LPS-induced TNFalpha level in blood at 20 mg/kg, po thrice at 12 hrs interval. It is filed as functional, organism-based.
The target of data set [6] is T1, Mitogen-activated protein kinase kinase kinase 7 (Mus musculus) (UniProt Q62073).
T1 sequence (whole entry): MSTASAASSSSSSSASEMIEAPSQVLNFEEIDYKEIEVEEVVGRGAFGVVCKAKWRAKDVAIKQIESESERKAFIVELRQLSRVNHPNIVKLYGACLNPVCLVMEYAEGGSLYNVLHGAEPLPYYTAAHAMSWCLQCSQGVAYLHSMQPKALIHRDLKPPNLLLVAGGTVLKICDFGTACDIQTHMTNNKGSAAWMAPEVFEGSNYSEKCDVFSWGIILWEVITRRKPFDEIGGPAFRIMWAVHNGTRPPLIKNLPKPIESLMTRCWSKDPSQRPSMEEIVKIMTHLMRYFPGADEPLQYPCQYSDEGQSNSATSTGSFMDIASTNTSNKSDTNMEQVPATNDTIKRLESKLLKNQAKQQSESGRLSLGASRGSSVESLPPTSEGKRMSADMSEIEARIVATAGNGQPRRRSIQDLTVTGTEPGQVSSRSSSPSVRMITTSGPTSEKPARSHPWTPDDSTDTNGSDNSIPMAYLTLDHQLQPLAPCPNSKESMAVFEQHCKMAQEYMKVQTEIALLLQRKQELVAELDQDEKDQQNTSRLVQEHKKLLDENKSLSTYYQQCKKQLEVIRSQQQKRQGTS
Briefly: Inhibition of TAK1 phosphorylation in mouse J774A.1 cells pretreated at 10 uM for 2 hrs followed by induced with LPS for 30 mins by Western blot analysis. It is filed as cell-based. The note with it: J774.1, time 2.5 hrs.

Data set [7] deals with T2, NF-kappa-B inhibitor alpha (Mus musculus) (UniProt Q9Z1E3).
T2 sequence (whole entry): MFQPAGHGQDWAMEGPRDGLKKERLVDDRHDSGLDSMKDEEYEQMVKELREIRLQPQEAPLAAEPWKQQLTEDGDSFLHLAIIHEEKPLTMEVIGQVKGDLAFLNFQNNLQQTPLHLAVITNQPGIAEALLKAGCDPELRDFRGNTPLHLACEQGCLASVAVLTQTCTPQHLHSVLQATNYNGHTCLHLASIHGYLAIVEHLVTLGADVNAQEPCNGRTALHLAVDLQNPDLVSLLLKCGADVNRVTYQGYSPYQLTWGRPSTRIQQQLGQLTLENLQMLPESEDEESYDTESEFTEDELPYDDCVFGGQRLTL
Briefly: […] in mouse J774A.1 cells pretreated at 10 uM for 2 hrs followed by induced with LPS for 30 mins by Western blot analysis. It is filed as cell-based. The note with it: J774.1.

For data set [8], the target named is T3, Mitogen-activated protein kinase kinase kinase 7 (Homo sapiens) (UniProt O43318).
T3 sequence (whole entry): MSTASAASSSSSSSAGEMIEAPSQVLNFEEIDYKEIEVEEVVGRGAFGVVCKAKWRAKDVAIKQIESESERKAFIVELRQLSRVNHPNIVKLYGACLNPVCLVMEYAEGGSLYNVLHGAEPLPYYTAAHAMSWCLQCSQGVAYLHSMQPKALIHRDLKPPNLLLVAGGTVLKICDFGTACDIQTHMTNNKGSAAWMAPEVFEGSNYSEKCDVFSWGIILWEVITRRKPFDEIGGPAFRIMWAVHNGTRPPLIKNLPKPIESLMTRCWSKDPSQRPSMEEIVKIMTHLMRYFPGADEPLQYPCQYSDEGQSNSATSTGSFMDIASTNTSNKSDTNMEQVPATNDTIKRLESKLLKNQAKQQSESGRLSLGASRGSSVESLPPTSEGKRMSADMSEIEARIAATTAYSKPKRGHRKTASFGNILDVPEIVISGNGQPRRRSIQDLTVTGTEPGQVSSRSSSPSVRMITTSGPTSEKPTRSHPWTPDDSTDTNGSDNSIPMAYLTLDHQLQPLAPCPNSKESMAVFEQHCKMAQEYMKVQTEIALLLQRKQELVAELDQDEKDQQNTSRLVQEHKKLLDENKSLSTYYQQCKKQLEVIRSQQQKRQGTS
Put plainly: Inhibition of TAK1 (unknown origin) assessed as inhibition rate at 10 uM by SPR analysis relative to control.

Data set [9] concerns the target Mitogen-activated protein kinase 9 (Homo sapiens, UniProt P45984). Briefly: Binding affinity to JNK2 (unknown origin) assessed as dissociation constant by SPR analysis.
Data set [10] relates to Mus musculus. Briefly: Antiinflammatory activity against LPS-induced acute lung injury C57 mouse model assessed as decrease in LPS-induced TNFalpha level in serum at 20 to 40 mg/kg, po thrice at 12 hrs interval followed 30 mins treated with LPS by ELISA. It counts as functional, organism-based. The note with it: dose 20-40 mg/kg, time 36.5 hrs.
The subject of data set [11] is Mus musculus. Put plainly: Antiinflammatory activity against LPS-induced acute lung injury C57 mouse model assessed as decrease in LPS-induced IL-6 level in serum at 20 to 40 mg/kg, po thrice at 12 hrs interval followed 30 mins treated with LPS by ELISA. It counts as functional, organism-based. The note with it: dose 20-40 mg/kg, time 36.5 hrs.
Data set [12] deals with Mus musculus. Put plainly: Antiinflammatory activity against LPS-induced acute lung injury C57 mouse model assessed as reduction in LPS-induced p-JNK level in lung tissue at 40 mg/kg, po thrice at 12 hrs interval followed 30 mins treated with LPS by Western blot analysis. It counts as functional, organism-based. The note with it: time 36.5 hrs.
The nature of data set [13]: Subacute toxicity in ICR mouse assessed as pathological change in spleen at 500 to 100 mg/kg, IG measured for 10 days by hematoxylin and eosin dye based light microscopy. The note with it: in vivo, po, 240 h, dose 500-100 mg/kg, time 10 day. It is filed as organism-based.
Data set [14] can be described thus: Subacute toxicity in ICR mouse assessed as pathological change in kidney at 500 to 100 mg/kg, IG measured for 10 days by hematoxylin and eosin dye based light microscopy. It is filed as organism-based. The note with it: in vivo, po, 240 h, dose 500-100 mg/kg, time 10 day.
Data set [15] is described as follows: AUC (0 to t) in Sprague-Dawley rat at 10 mg/kg, po measured upto 24 hrs by UPLC-MS/MS analysis. It counts as ADME, organism-based. Set-up: dose 10 mg/kg, time < 24 hrs, route po. The note with it: in vivo.
The nature of data set [16]: Half life in Sprague-Dawley rat at 10 mg/kg, po measured upto 24 hrs by UPLC-MS/MS analysis. It is filed as ADME, organism-based. The note with it: in vivo.
Data set [17] is described as follows: Cmax in Sprague-Dawley rat at 10 mg/kg, iv measured upto 24 hrs by UPLC-MS/MS analysis. It is filed as ADME, organism-based. Details: dose 10 mg/kg, time < 24 hrs, route iv. The note with it: in vivo.

Calls of active or inactive are those of the source.

The values below come from ChEMBL document CHEMBL5321290, “Discovery of the Diphenyl 6-Oxo-1,6-dihydropyridazine-3-carboxylate/carboxamide Analogue J27 for the Treatment of Acute Lung Injury and Sepsis by Targeting JNK2 and Inhibiting the JNK2-NF-κB/MAPK Pathway” (J Med Chem, 2023).

Mitogen-activated protein kinase 9, sequence (P45984 whole entry): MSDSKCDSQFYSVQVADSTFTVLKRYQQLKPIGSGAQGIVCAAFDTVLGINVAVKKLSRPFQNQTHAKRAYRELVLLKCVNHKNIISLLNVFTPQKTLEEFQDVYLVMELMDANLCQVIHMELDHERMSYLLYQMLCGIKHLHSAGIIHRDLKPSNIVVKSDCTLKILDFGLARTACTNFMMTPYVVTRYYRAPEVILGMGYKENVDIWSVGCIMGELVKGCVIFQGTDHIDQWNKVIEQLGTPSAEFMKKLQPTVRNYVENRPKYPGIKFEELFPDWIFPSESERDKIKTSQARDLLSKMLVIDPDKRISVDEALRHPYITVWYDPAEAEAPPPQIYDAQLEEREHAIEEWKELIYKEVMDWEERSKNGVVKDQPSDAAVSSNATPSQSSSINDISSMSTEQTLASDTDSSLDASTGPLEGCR

Turning to `COc1cc2nccc(Oc3ccc(NC(=O)c4nn(-c5ccc(C)cc5)c(=O)cc4C)cc3)c2cc1OC`, the IC50 in the data set on J774.A1 is 7.11 µM; in the data set on THP-1 [2], 0.22 µM. The viability at 24 h, 10 µM in [1] is greater than 80%. Besides, the Activity entry with THP-1 [3] was “Dose-Dependent Effect”; in [13], “Non-Toxic”; in data set [14], “Non-Toxic”. The outcome with Mus musculus [4] was inactive. Besides, the result (in the data set on Mus musculus [5]; in [7]; in the data set on Mus musculus [10]; in the data set with Mus musculus [11]; in the data set on Mus musculus [12]) was Active. In addition, the inhibition result in [6] is “Active”. Also, the inhibition in data set [8] came out at 8.85%. Besides, the Kd in data set [9] amounted to 79.2 µM. Further, in data set [15], the AUCt worked out at 7792.708 ng·h/mL. In data set [16], the half-life is 1.16 h. The same compound gave a Cmax in data set [17] of 1460 ng/mL.

As a reminder, the IC50 is the concentration at which inhibition is half-maximal. By inhibition is commonly meant the percentage by which the read-out fell short of the control. As a reminder, the Kd is the equilibrium constant for the complex coming apart. As usually defined, the half-life is the time needed for the level to fall by half in the phase considered. High values mean slow decline, low ones rapid decline. The term Cmax denotes the peak of the concentration-time curve.
